Data set [1] can be described thus: Solubility assessment (UHPLC-UV of supernatant, target 10 mg/ml). It counts as physicochemical. The settings on record: for solubility at 24 h: pH 7.4, Soluble amount. How it is done: Prior to the solubility measurement of a peptide batch, its purity was determined through UHPLC/MS.
Therefore, solutions from solid samples were prepared in a buffer system with a concentration of 10 mg/ml compound based on the previously determined % purity: • Solubility buffer system A) 100 mM phosphate buffer pH 7.4 • Solubility buffer system B) 8 mM phosphate buffer pH 7.4, 14 mg/ml propylene glycol, 5.5 mg/ml phenol • Solubility buffer system C) 100 mM phosphate buffer pH 7.4, 2.7 mg/ml m-cresol
UHPLC-UV was performed after 1 h of gentle agitation and storage at 5° C. overnight (24 h) from the supernatant, which was obtained after 15 min of centrifugation at 2500 RCF (relative centrifugal acceleration).
The different UV extinction coefficients of sample and reference peptide were calculated based on the different amino acid sequences and considered in the concentration calculation.
The analytical method used was Analytical UHPLC Method A.
Peptide samples were prepared in solubility buffer system A or C and solubility was assessed as described in Methods.

The target in data set [2] is human GLP-1 receptor (hGLP-1R) (Homo sapiens, UniProt P43220). The experiment in a line: In vitro cellular cAMP assay for GLP-1 receptor efficacy (HEK-293 cell line over-expressing receptor). Particulars: HEK-293, 0.1% BSA. It counts as cell-based. (In general: Cyclic AMP is a second messenger, typically raised through Gs and lowered through Gi signalling.)
human GLP-1 receptor (hGLP-1R), sequence (P43220 24-463): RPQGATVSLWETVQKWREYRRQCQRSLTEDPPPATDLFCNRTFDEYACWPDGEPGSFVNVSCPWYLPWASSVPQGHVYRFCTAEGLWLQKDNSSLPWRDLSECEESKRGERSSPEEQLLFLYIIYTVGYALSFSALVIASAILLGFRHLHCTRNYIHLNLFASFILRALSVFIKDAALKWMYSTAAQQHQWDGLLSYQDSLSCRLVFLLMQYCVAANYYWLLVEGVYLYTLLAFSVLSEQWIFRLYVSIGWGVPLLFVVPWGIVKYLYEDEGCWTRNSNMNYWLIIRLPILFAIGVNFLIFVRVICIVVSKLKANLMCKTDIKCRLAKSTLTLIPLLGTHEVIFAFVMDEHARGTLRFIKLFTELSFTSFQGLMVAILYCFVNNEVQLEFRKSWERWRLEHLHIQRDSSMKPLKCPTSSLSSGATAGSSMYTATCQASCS
The target of data set [3] is T1, human GIP receptor (hGIPR) (Homo sapiens, UniProt P48546).
T1 sequence (P48546 22-466): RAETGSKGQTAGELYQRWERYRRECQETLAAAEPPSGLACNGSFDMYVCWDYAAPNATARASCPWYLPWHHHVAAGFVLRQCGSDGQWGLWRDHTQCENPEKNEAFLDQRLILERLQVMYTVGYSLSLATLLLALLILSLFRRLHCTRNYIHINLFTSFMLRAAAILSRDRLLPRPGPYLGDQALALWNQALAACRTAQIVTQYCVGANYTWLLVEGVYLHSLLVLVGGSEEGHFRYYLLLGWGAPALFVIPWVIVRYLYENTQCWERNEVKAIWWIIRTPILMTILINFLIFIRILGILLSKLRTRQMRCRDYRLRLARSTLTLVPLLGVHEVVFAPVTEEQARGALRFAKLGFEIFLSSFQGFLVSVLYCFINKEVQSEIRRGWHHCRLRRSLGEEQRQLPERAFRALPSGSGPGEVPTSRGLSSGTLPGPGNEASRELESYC
The experiment in a line: Binding assay, displacement of [125I]GIP from HEK-293 membranes over-expressing GIPR (SPA). Particulars: [125I]GIP displacement. As to the method: (1) Preparation of Membranes from HEK-293 Cells Over-Expressing GIPR or GLP-1R
HEK-293 cells recombinantly over-expressing GIPR or GLP-1R were grown to 50% confluency, washed with warm 1×PBS (Gibco) and detached in HEPES/EDTA-buffer (100 mM HEPES pH 7.5, 5 mM EDTA). Cells were harvested by centrifugation at 4° C. and 3000×g and the pellets were stored at −80° C. until further processing.
After thawing on ice, pellets were resuspended in HEPES/EDTA-buffer and homogenized on ice for 1 min using Ultra-Turray T25. After subsequent sonification the cell debris was removed by centrifugation at 1000×g and 4° C. Supernatants were then ultra-centrifuged at 100000×g and 4° C. under vacuum for 30 min. Pellets were resuspended in HEPES/EDTA/NaCl-buffer (20 mM HEPES, 1 mM EDTA, 150 mM NaCl; add 1 Complete Mini Protease inhibitor cocktail to 10 ml buffer) and protein content was determined via BCA-Protein assay.
(2) Measurement of Binding Activity of Test Compounds to Human GIPR or GLP-1R

The target in another data set is T2, human GIP receptor (Homo sapiens, UniProt P48546).
T2 construct: human adipocytes endogenously expressing the human GIP receptor; host or cells: human preadipocytes (Lonza) differentiated to adipocytes
T2 sequence (P48546 22-466): T1 sequence (P48546 22-466)
Briefly: In vitro cellular cAMP assay for GIP receptor efficacy (human adipocytes). The format is cell-based. The settings on record: for pEC50: read-out: hGIPR EC50; for Emax: read-out: hGIPR Emax. How it is done:
For this, one vial of human preadipocytes (˜10^6 cells; Lonza) was thawed in a T-75 cell culture dish. The cells were cultivated at 37° C., 5% CO2, 95% humidity in Preadipocyte Growth Medium with Supplement Mix from Promo Cell.
After 3 days, the cells were washed with PBS and 1.5 ml Trypsin, incubated for 4 min, then resuspended in medium, centrifugated for 10 min @ 300 rcf RT, resuspended again and distributed to four T-75 cell culture dishes. Again, the cells were cultivated at 37° C., 5% CO2, 95% humidity.
After 5 days, the cells were washed with PBS and 1.5 ml Trypsin, incubated for 4 min, then resuspended in medium, centrifugated for 10 min @ 300 rcf RT, resuspended again and sawn in T-75 dishes (2.5×10^6 cells per dish) in 15 ml Differentiation medium each.
The differentiation medium had the following composition: DMEM (Gibco), Ham's F10 (Gibco), 15 mM HEPES (Gibco), 3% FCS (PAA), 33 μM biotin (Sigma-Aldrich), 17 μM Pantothenate (Sigma-Aldrich), 0.1 μM human insulin (Sigma-Aldrich), 1 μM dexamethason (Sigma-Aldrich), 0.1 μM PPARgamma agonist (#R2408, Sigma-Aldrich), 0.6×Anti-Anti (#15240, ThermoFisher), 200 μM IBMX (AppliChem), and 0.01 μM L-thyroxine (Sigma-Aldrich).
After 6 days of differentiation, 5000 cells per well were dispensed on a 96-well plate (#CLS3694 from Corning®, Sigma-Aldrich). For measurement of cAMP generation, 25 μL of test compound was added to each well of the 96-well plate, followed by incubation for 30 min at room temperature.
The cAMP generated following test compound stimulation was determined using a kit from Cisbio Corp. based on HTRF (Homogenous Time Resolved Fluorescence). The cAMP assay was performed according to manufacturer's instructions (Cisbio).
The cAMP content of cells was determined using a kit from Cisbio Corp. based on HTRF (Homogenous Time Resolved Fluorescence).
After addition of HTRF reagents diluted in lysis buffer (kit components), the plates were incubated for 1 h, followed by measurement of the fluorescence ratio at 665/620 nm.

The results in this text go back to patent US20240360194A1, “New Peptides as Potent and Selective GIP Receptor Agonists” (Sanofi, priority 2021, published 2024).

Structures are written as SMILES. pEC50, pIC50: −log10 of the molar value. ≈ marks a conversion by molar mass, not a printed value. Numbered stars: 1 amine (or outer) side, 2 acyl side, 3 side chain; on linkers, the order of the positions; unused ones are H or OH. Square brackets hold non-standard residues; d marks the D form. Side chains are listed from the residue outwards. Peptide text beside a SMILES is read from it. * marks the point of attachment. C18 diacid = O=C(O)CCCCCCCCCCCCCCCCC(=O)*; γGlu = O=C(O)[C@H](CCC(=O)[*:2])N[*:1]; αMeF = C[C@](N)(Cc1ccccc1)C(=O)O; hLeu = CC(C)CC[C@H](N)C(=O)O; AEEA = NCCOCCOCC(=O)O; Aib = CC(C)(N)C(=O)O

By solubility is commonly meant how much of the substance goes into solution per volume. What is called pEC50 is −log10 of the EC50, conventionally taken in molar units. Usually pIC50 stands for the negative decadic logarithm of the IC50, by convention in mol/L. Higher therefore signals a small IC50. A word on the Emax: it is the maximal effect, on the per cent scale that the assay sets. Regarding `CC[C@H](C)[C@H](NC(=O)[C@H](CCCNC(=N)N)NC(=O)[C@H](CC(=O)O)NC(=O)[C@H](CCCCNC(=O)COCCOCCNC(=O)COCCOCCNC(=O)CC[C@H](NC(=O)CCCCCCCCCCCCCCCCC(=O)O)C(=O)O)NC(=O)C(C)(C)NC(=O)[C@@H](NC(=O)[C@H](CO)NC(=O)[C@H](CC(C)C)NC(=O)[C@H](CC(=O)O)NC(=O)[C@H](CO)NC(=O)[C@@H](NC(=O)[C@H](Cc1ccccc1)NC(=O)[C@@H](NC(=O)CNC(=O)[C@H](CCC(=O)O)NC(=O)C(C)(C)NC(=O)[C@@H](N)Cc1ccc(O)cc1)[C@@H](C)O)[C@@H](C)CC)[C@@H](C)CC)C(=O)N[C@@H](Cc1c[nH]cn1)C(=O)N[C@@H](CCC(N)=O)C(=O)N[C@@H](CCC(=O)O)C(=O)N[C@@H](CCC(=O)O)C(=O)N[C@@](C)(Cc1ccccc1)C(=O)N[C@H](C(=O)N[C@@H](CCC(=O)O)C(=O)N[C@@H](Cc1c[nH]c2ccccc12)C(=O)N[C@@H](CC(C)C)C(=O)N[C@@H](CC(C)C)C(=O)N[C@@H](C)C(=O)N[C@@H](CCC(N)=O)C(=O)NCC(=O)N1CCC[C@H]1C(=O)N[C@@H](CO)C(=O)N[C@@H](CO)C(=O)NCC(=O)N[C@@H](C)C(=O)N1CCC[C@H]1C(=O)N1CCC[C@H]1C(=O)N1CCC[C@H]1C(=O)N[C@@H](CO)C(N)=O)[C@@H](C)CC` [SEQ ID NO: 32, H2N-Y-Aib-E-G-T-F-I-S-D-L-S-I-Aib-K[{AEEA}2-gGlu-C18OH]-D-R-I-H-Q-E-E-Mph-I-E-W-L-L-A-Q-G-P-S-S-G-A-P-P-P-S-NH2] (H-Y[Aib]EGTFISDLSI[Aib]K([AEEA-AEEA-γGlu-C18 diacid])DRIHQEE[αMeF]IEWLLAQGPSSGAPPPS-NH2), the solubility at 24 h in data set [1] turned out to be 8200 µg/mL (≈ 1630 µM). For the same compound, the pEC50 in data set [2] is less than 8.00. The compound also showed a pIC50 in data set [3] of 9.05. In addition, at human GIP receptor, the pEC50 is 9.22 and the Emax worked out at 109%.

In data set [1] (24 h, pH 7.4), `CC[C@H](C)[C@H](NC(=O)[C@H](Cc1ccccc1)NC(=O)[C@H](CCC(=O)O)NC(=O)[C@H](CCC(=O)O)NC(=O)[C@H](CCC(N)=O)NC(=O)[C@H](Cc1c[nH]cn1)NC(=O)[C@@H](NC(=O)[C@H](CCCNC(=N)N)NC(=O)[C@H](CC(=O)O)NC(=O)[C@H](CCCCNC(=O)COCCOCCNC(=O)COCCOCCNC(=O)CC[C@H](NC(=O)CCCCCCCCCCCCCCCCC(=O)O)C(=O)O)NC(=O)C(C)(C)NC(=O)[C@@H](NC(=O)[C@H](CO)NC(=O)[C@H](CCC(C)C)NC(=O)[C@H](CC(=O)O)NC(=O)[C@H](CO)NC(=O)[C@@H](NC(=O)[C@H](Cc1ccccc1)NC(=O)[C@@H](NC(=O)CNC(=O)[C@H](CCC(=O)O)NC(=O)C(C)(C)NC(=O)[C@@H](N)Cc1ccc(O)cc1)[C@@H](C)O)[C@@H](C)CC)[C@@H](C)CC)[C@@H](C)CC)C(=O)N[C@@H](CCC(=O)O)C(=O)N[C@@H](Cc1c[nH]c2ccccc12)C(=O)N[C@@H](CC(C)C)C(=O)N[C@@H](CC(C)C)C(=O)N[C@@H](C)C(=O)N[C@@H](CCC(N)=O)C(=O)NCC(=O)N1CCC[C@H]1C(=O)N[C@@H](CO)C(=O)N[C@@H](CO)C(=O)NCC(=O)N[C@@H](C)C(=O)N1CCC[C@H]1C(=O)N1CCC[C@H]1C(=O)N1CCC[C@H]1C(=O)N[C@@H](CO)C(N)=O` [SEQ ID NO: 34, H2N-Y-Aib-E-G-T-F-I-S-D-Hol-S-I-Aib-K[{AEEA}2-gGlu-C18OH]-DRIHQEEFIEWLLAQGPSSGAPPPS-NH2] (H-Y[Aib]EGTFISD[hLeu]SI[Aib]K([AEEA-AEEA-γGlu-C18 diacid])DRIHQEEFIEWLLAQGPSSGAPPPS-NH2) registered a Soluble amount greater than 8.7 mg/mL. This compound registered a solubility at 24 h in data set [1] greater than 9200 µg/mL. Besides, in data set [2], the pEC50 is less than 8.00. The compound also had a negative logarithm of the IC50 (pIC50) in data set [3] of 9.52. Further, at human GIP receptor, the pEC50 is 9.30 and the Emax was 112%.

Regarding `CC[C@H](C)[C@H](NC(=O)[C@H](CCCNC(=N)N)NC(=O)[C@H](CC(=O)O)NC(=O)[C@H](CCCCNC(=O)COCCOCCNC(=O)COCCOCCNC(=O)CC[C@H](NC(=O)CCCCCCCCCCCCCCCCC(=O)O)C(=O)O)NC(=O)C(C)(C)NC(=O)[C@@H](NC(=O)[C@H](CO)NC(=O)[C@H](CC(C)C)NC(=O)[C@H](CC(=O)O)NC(=O)[C@H](CO)NC(=O)[C@@H](NC(=O)[C@H](Cc1ccccc1)NC(=O)[C@@H](NC(=O)CNC(=O)[C@H](CCC(=O)O)NC(=O)C(C)(C)NC(=O)[C@@H](N)Cc1ccc(O)cc1)[C@@H](C)O)[C@@H](C)CC)[C@@H](C)CC)C(=O)N[C@@H](Cc1c[nH]cn1)C(=O)N[C@@H](CCC(N)=O)C(=O)NC(C)(C)C(=O)N[C@@H](CCC(=O)O)C(=O)N[C@@H](Cc1ccccc1)C(=O)N[C@H](C(=O)N[C@@H](CCC(=O)O)C(=O)N[C@@H](Cc1c[nH]c2ccccc12)C(=O)N[C@@H](CC(C)C)C(=O)N[C@@H](CC(C)C)C(=O)N[C@@H](C)C(=O)N[C@@H](CCC(N)=O)C(=O)N[C@@H](CCCNC(=N)N)C(=O)N1CCC[C@H]1C(=O)N[C@@H](CO)C(=O)N[C@@H](CO)C(=O)NCC(=O)N[C@@H](C)C(=O)N1CCC[C@H]1C(=O)N1CCC[C@H]1C(=O)N1CCC[C@H]1C(=O)N[C@@H](CO)C(N)=O)[C@@H](C)CC` [SEQ ID NO: 30, H2N-Y-Aib-E-G-T-F-I-S-D-L-S-I-Aib-K[{AEEA}2-gGlu-C18OH]-D-R-I-H-Q-Aib-E-F-I-E-W-L-L-A-Q-R-P-S-S-G-A-P-P-P-S-NH2] (H-Y[Aib]EGTFISDLSI[Aib]K([AEEA-AEEA-γGlu-C18 diacid])DRIHQ[Aib]EFIEWLLAQRPSSGAPPPS-NH2), the solubility at 24 h in data set [1] came to 8400 µg/mL (≈ 1660 µM). The negative logarithm of the EC50 (pEC50) in data set [2] was less than 8.00. Also, in data set [3], the pIC50 is 10.00. Also, at human GIP receptor, the pEC50 was 9.30 and the Emax was determined as 138%.
